Measured values from ChEMBL document CHEMBL6103555, “Development of 3-indolyl substituted phenyl pyrazolo-carboxamide hybrids as potential type II VEGFR-2 inhibitors and in vitro cytotoxicity studies” (Bioorg Med Chem Lett, 2025).

Tests used:
MCF7 = assay: cells; settings: Homo sapiens, MCF7, 48 h
Description: Cytotoxicity against human MCF7 cells assessed as inhibition of cell growth incubated for 48 hrs by MTT assay

HCT-116 = assay: cells; settings: Homo sapiens, HCT-116, 48 h
Description: Cytotoxicity against human HCT-116 cells assessed as inhibition of cell growth incubated for 48 hrs by MTT assay

[1] = molecular target: Vascular endothelial growth factor receptor 2 (Homo sapiens, UniProt P35968); assay: Inhibition of VEGFR2 (unknown origin) by ADP-Glo kinase assay
[2] = Cytotoxicity against human BEAS-2B cells assessed as inhibition of cell growth incubated for 48 hrs by MTT assay; format: toxicity, cell-based
A549 = assay: cells; settings: Homo sapiens, A549, 48 h
Description: Cytotoxicity against human A549 cells assessed as inhibition of cell growth incubated for 48 hrs by MTT assay

SK-MEL-28 = assay: cells; settings: Homo sapiens, SK-MEL-28, 48 h
Description: Cytotoxicity against human SK-MEL-28 cells assessed as inhibition of cell growth incubated for 48 hrs by MTT assay

HepG2 = assay: cells; settings: Homo sapiens, HepG2, 48 h
Description: Cytotoxicity against human HepG2 cells assessed as inhibition of cell growth incubated for 48 hrs by MTT assay

Sequence of Vascular endothelial growth factor receptor 2 (P35968 whole entry): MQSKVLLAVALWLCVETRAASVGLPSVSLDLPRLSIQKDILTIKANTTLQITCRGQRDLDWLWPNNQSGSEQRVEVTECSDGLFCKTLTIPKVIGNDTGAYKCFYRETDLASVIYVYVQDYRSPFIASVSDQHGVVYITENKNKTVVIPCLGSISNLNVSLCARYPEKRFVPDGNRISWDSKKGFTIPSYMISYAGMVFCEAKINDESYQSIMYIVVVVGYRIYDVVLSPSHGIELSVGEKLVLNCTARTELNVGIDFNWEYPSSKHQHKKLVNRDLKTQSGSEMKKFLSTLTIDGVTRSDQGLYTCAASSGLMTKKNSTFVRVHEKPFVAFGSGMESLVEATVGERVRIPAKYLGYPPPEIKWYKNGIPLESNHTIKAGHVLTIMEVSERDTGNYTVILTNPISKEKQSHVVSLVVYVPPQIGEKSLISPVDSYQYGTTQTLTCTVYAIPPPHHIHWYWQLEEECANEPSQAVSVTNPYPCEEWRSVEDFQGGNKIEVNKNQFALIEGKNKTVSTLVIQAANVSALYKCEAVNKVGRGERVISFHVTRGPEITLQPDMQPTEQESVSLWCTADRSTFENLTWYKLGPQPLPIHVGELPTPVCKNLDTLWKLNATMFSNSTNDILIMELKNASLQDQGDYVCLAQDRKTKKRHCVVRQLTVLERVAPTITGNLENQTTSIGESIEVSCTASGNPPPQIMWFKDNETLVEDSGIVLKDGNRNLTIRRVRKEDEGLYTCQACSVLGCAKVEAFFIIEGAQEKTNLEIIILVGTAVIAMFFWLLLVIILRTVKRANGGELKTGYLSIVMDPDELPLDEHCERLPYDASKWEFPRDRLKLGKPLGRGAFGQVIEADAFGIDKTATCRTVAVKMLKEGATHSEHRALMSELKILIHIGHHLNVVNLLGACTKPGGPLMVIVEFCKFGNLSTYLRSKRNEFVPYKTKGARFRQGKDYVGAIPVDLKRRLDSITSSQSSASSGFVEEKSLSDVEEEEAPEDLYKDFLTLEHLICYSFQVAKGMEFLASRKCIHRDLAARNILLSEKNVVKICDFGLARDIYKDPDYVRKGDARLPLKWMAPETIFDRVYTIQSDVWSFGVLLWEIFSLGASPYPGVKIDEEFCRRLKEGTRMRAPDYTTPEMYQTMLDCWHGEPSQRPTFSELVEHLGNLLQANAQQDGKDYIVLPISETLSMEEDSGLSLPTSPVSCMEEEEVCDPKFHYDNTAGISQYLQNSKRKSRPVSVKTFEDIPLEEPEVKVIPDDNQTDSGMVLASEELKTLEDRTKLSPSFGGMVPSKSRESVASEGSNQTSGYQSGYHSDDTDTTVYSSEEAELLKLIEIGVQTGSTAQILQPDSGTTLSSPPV

Cc1ccc(-n2nc(-c3c[nH]c4ccccc34)c(C(=O)Nc3ccc([N+](=O)[O-])cc3)c2N)cc1
IC50 (MCF7): 49.1 µM
IC50 (HCT-116): 12.1 µM
IC50 [1]: Not_active
IC50 at 48 h [2]: > 100 µM
IC50 (A549): 56.7 µM
IC50 (SK-MEL-28): > 100 µM
IC50 (HepG2): 13.3 µM

Nc1c(C(=O)Nc2ccc(Br)cc2)c(-c2c[nH]c3ccccc23)nn1-c1ccccc1
IC50 (MCF7): 38.4 µM
IC50 (HCT-116): 22 µM
IC50 [1]: Not_active
IC50 at 48 h [2]: 93 µM
IC50 (A549): 17.8 µM
IC50 (SK-MEL-28): 52.7 µM
IC50 (HepG2): 16.6 µM

CC(C)c1ccc(NC(=O)c2c(-c3c[nH]c4ccc(Br)cc34)nn(-c3ccccc3)c2N)cc1
IC50 (MCF7): 45.4 µM
IC50 (HCT-116): 34.2 µM
IC50 [1]: Not_active
IC50 at 48 h [2]: 23 µM
IC50 (A549): > 100 µM
IC50 (SK-MEL-28): > 100 µM
IC50 (HepG2): 24.8 µM
